Legend:
ragweed [1] = experiment: Test A postemergence; type: in vivo, Ambrosia artemisiifolia; settings: 1000 g ai/ha, Postemergence, 0 to 100 scale; for pest or weed control at 1000 g/ha: Ambrosia artemisiifolia, post-emergence, 240 h, read-out: Plant response rating, Ragweed
Outline: (§1)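 Plants were grown in loam and sand and treated preemergence or postemergence (one- to two-leaf stage, 2–10 cm) with compound in solvent plus surfactant. Response was scored against untreated controls after 10 greenhouse days, where 0 means no effect and 100 complete control.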

kochia [2] = experiment: Test A postemergence; type: in vivo, Bassia scoparia; settings: 1000 g ai/ha, Postemergence, 0 to 100 scale; for pest or weed control at 1000 g/ha: Bassia scoparia, post-emergence, 240 h, read-out: Plant response rating, Kochia
Outline: as §1

ducksalad = experiment: Test B flooded paddy test; type: in vivo, Heteranthera limosa; settings: 250 g ai/ha, Flood, 13 days, 0 to 100 scale (0 no effect, 100 complete control); for pest or weed control at 250 g/ha: Heteranthera limosa, 312 h, read-out: Plant response rating, Ducksalad
Outline: (§2)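 Each species was raised to the 2-leaf stage. At treatment, each pot received floodwater 3 cm deep, with the chemical delivered into the water. Greenhouse holding followed for 13 days, then percent control was estimated visually versus untreated pots.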

kochia [3] = experiment: Test A preemergence; type: in vivo, Bassia scoparia; settings: 1000 g ai/ha, 0 to 100 scale (0 no effect, 100 complete control), 10 days; for pest or weed control at 1000 g/ha: Bassia scoparia, pre-emergence, 240 h, read-out: Plant response rating, Kochia
Outline: as §1

barnyardgrass [4] = experiment: Test A postemergence; type: in vivo, Echinochloa crusgalli; settings: 1000 g ai/ha, Postemergence; 0 to 100 scale
Outline: as §1

ryegrass, Italian [5] = experiment: Test A postemergence; type: in vivo, Lolium multiflorum; settings: 1000 g ai/ha, Postemergence, 0 to 100 scale; for pest or weed control at 1000 g/ha: Lolium multiflorum, post-emergence, 240 h, read-out: Plant response rating, Ryegrass, Italian
Outline: as §1

sedge, umbrella = experiment: Test B flooded paddy test; type: in vivo, Cyperus difformis; settings: 250 g ai/ha, Flood, 13 days, 0 to 100 scale (0 no effect, 100 complete control); for pest or weed control at 250 g/ha: Cyperus difformis, 312 h, read-out: Plant response rating, Sedge, Umbrella
Outline: as §2

foxtail, giant [6] = experiment: Test A postemergence; type: in vivo, Setaria faberi; settings: 1000 g ai/ha, Postemergence, 0 to 100 scale; for pest or weed control at 1000 g/ha: Setaria faberi, post-emergence, 240 h, read-out: Plant response rating, Foxtail, Giant
Outline: as §1

corn = experiment: Test A postemergence; type: in vivo, Zea mays; settings: 1000 g ai/ha, Postemergence, 0 to 100 scale; for Corn plant response rating (crop injury, 0 = no effect, 100 = complete kill) at 1000 g/ha: Zea mays, post-emergence, 240 h
Outline: as §1

galium = experiment: Test A postemergence; type: in vivo, Galium aparine; settings: 1000 g ai/ha, Postemergence, 0 to 100 scale; for pest or weed control at 1000 g/ha: Galium, post-emergence, 240 h, read-out: Plant response rating, Galium
Outline: as §1

barnyardgrass [7] = experiment: Test A preemergence; type: in vivo, Echinochloa crusgalli; settings: 1000 g ai/ha, 0 to 100 scale (0 no effect, 100 complete control), 10 days
Outline: as §1

wheat = experiment: Test A postemergence; type: in vivo, Triticum aestivum; settings: 1000 g ai/ha, Postemergence, 0 to 100 scale; for plant injury at 1000 g/ha: Triticum aestivum, post-emergence, 240 h, read-out: Plant response rating, Wheat
Outline: as §1

Pigweed, Redroot [8] = experiment: Test A postemergence; type: in vivo, Amaranthus retroflexus; settings: 1000 g ai/ha, Postemergence; 0 to 100 scale
Outline: as §1

barnyardgrass [9] = experiment: Test B flooded paddy test; type: in vivo, Echinochloa crus-galli; settings: 250 g ai/ha, Flood, 13 days, 0 to 100 scale (0 no effect, 100 complete control); for pest or weed control at 250 g/ha: Echinochloa crus-galli, 312 h, read-out: Plant response rating, Barnyardgrass
Outline: as §2

foxtail, giant [10] = experiment: Test A preemergence; type: in vivo, Setaria faberi; settings: 1000 g ai/ha, 0 to 100 scale (0 no effect, 100 complete control), 10 days; for pest or weed control at 1000 g/ha: Setaria faberi, pre-emergence, 240 h, read-out: Plant response rating, Foxtail, Giant
Outline: as §1

ryegrass, Italian [11] = experiment: Test A preemergence; type: in vivo, Lolium multiflorum; settings: 1000 g ai/ha, 0 to 100 scale (0 no effect, 100 complete control), 10 days; for pest or weed control at 1000 g/ha: Lolium multiflorum, pre-emergence, 240 h, read-out: Plant response rating, Ryegrass, Italian
Outline: as §1

Pigweed, Redroot [12] = experiment: Test A preemergence; type: in vivo, Amaranthus retroflexus; settings: 1000 g ai/ha, 0 to 100 scale (0 no effect, 100 complete control), 10 days
Outline: as §1

rice = experiment: Test B flooded paddy test; type: in vivo, Oryza sativa; settings: 250 g ai/ha, Flood, 13 days, 0 to 100 scale (0 no effect, 100 complete control); for plant injury at 250 g/ha: Oryza sativa, 312 h, read-out: Plant response rating, Rice
Outline: as §2

blackgrass = experiment: Test A postemergence; type: in vivo, Alopecurus myosuroides; settings: 1000 g ai/ha, Postemergence, 0 to 100 scale; for pest or weed control at 1000 g/ha: Alopecurus myosuroides, post-emergence, 240 h, read-out: Plant response rating, Blackgrass
Outline: as §1

ragweed [13] = experiment: Test A preemergence; type: in vivo, Ambrosia artemisiifolia; settings: 1000 g ai/ha, 0 to 100 scale (0 no effect, 100 complete control), 10 days; for pest or weed control at 1000 g/ha: Ambrosia artemisiifolia, pre-emergence, 240 h, read-out: Plant response rating, Ragweed
Outline: as §1

| SMILES | Plant response rating, Barnyardgrass (barnyardgrass [4]) | Plant response rating, Barnyardgrass (barnyardgrass [7]) | Plant response rating, Pigweed, Redroot (Pigweed, Redroot [8]) | Plant response rating, Pigweed, Redroot (Pigweed, Redroot [12]) | Plant response rating, Ragweed (ragweed [1]) | Plant response rating, Kochia (kochia [2]) | Plant response rating, Ducksalad (ducksalad) | Plant response rating, Kochia (kochia [3]) | Plant response rating, Ryegrass, Italian (ryegrass, Italian [5]) | Plant response rating, Sedge, Umbrella (sedge, umbrella) | Plant response rating, Foxtail, Giant (foxtail, giant [6]) | Plant response rating, Corn (corn) | Plant response rating, Galium (galium) | Plant response rating, Wheat (wheat) | Plant response rating, Barnyardgrass (barnyardgrass [9]) | Plant response rating, Foxtail, Giant (foxtail, giant [10]) | Plant response rating, Ryegrass, Italian (ryegrass, Italian [11]) | Plant response rating, Rice (rice) | Plant response rating, Blackgrass (blackgrass) | Plant response rating, Ragweed (ragweed [13]) | also measured |
| --- | --- | --- | --- | --- | --- | --- | --- | --- | --- | --- | --- | --- | --- | --- | --- | --- | --- | --- | --- | --- | --- |
| C[C@H]1CN(C(=O)c2cccc(-n3cncn3)c2)c2cccc(Cl)c2O1 [Compound 18, [(2S)-8-Chloro-2,3-dihydro-2-methyl-4H-1,4-benzoxazin-4-yl][3-(1H-1,2,4-triazol-1-yl)phenyl]methanone] | 70 | 90 | 40 | 100 |  |  |  |  |  |  |  |  |  |  |  |  |  |  |  |  | pest or weed control at 1000 g/ha (ragweed [1]): 20%; pest or weed control at 1000 g/ha (kochia [2]): 50%; pest or weed control at 250 g/ha (ducksalad): 0%; pest or weed control at 1000 g/ha (kochia [3]): 70%; pest or weed control at 1000 g/ha (ryegrass, Italian [5]): 80%; pest or weed control at 250 g/ha (sedge, umbrella): 0%; pest or weed control at 1000 g/ha (foxtail, giant [6]): 90%; Corn plant response rating (crop injury, 0 = no effect, 100 = complete kill) at 1000 g/ha (corn): 40%; pest or weed control at 1000 g/ha (galium): 90%; plant injury at 1000 g/ha (wheat): 0%; pest or weed control at 250 g/ha (barnyardgrass [9]): 0%; pest or weed control at 1000 g/ha (foxtail, giant [10]): 100%; pest or weed control at 1000 g/ha (ryegrass, Italian [11]): 90%; plant injury at 250 g/ha (rice): 0%; pest or weed control at 1000 g/ha (blackgrass): 70%; pest or weed control at 1000 g/ha (ragweed [13]): 80% |
| CC1CN(C(=O)c2ccnc(-n3cncn3)c2)c2ccccc2O1 (stereo not drawn) [Compound 19] | 80 | 90 | 40 | 0 | 0 | 30 | 0 | 60 | 60 | 0 | 60 | 50 | 90 | 70 | 0 | 100 | 80 | 0 | 70 | 80 |  |
| CC1CN(C(=O)c2cccc(-n3cncn3)c2)c2cccc(F)c2O1 (stereo not drawn) [Compound 20] | 90 | 90 | 30 | 80 | 30 | 30 | 85 | 80 | 70 | 35 | 90 | 60 | 90 | 70 | 0 | 100 | 100 | 0 | 70 | 80 |  |
| Cc1cccc2c1OC(C)CN2C(=O)c1cccc(-n2cncn2)c1 (stereo not drawn) [Compound 21] | 90 | 100 | 60 | 100 | 40 | 40 | 65 | 70 | 80 | 35 | 90 | 90 | 80 | 70 | 0 | 100 | 100 | 0 | 80 | 70 |  |
| O=C(c1cccc(-n2cncn2)c1)N1CC(C2CC2)Oc2c(Cl)cccc21 (stereo not drawn) [Compound 22, (8-Chloro-2-cyclopropyl-2,3-dihydro-4H-1,4-benzoxazin-4-yl)[3-(1H-1,2,4-triazol-1-yl)phenyl]methanone] | 50 | 90 | 60 | 60 |  |  |  |  |  |  |  |  |  |  |  |  |  |  |  |  | pest or weed control at 1000 g/ha (ragweed [1]): 50%; pest or weed control at 1000 g/ha (kochia [2]): 70%; pest or weed control at 250 g/ha (ducksalad): 0%; pest or weed control at 1000 g/ha (kochia [3]): 50%; pest or weed control at 1000 g/ha (ryegrass, Italian [5]): 60%; pest or weed control at 250 g/ha (sedge, umbrella): 0%; pest or weed control at 1000 g/ha (foxtail, giant [6]): 80%; Corn plant response rating (crop injury, 0 = no effect, 100 = complete kill) at 1000 g/ha (corn): 70%; pest or weed control at 1000 g/ha (galium): 90%; plant injury at 1000 g/ha (wheat): 60%; pest or weed control at 250 g/ha (barnyardgrass [9]): 0%; pest or weed control at 1000 g/ha (foxtail, giant [10]): 90%; pest or weed control at 1000 g/ha (ryegrass, Italian [11]): 90%; plant injury at 250 g/ha (rice): 0%; pest or weed control at 1000 g/ha (blackgrass): 80%; pest or weed control at 1000 g/ha (ragweed [13]): 20% |
| C[C@H]1CN(C(=O)c2cccc(-n3cnnn3)c2)c2cccc(Cl)c2O1 [Compound 115] | 50 | 70 | 30 | 80 | 0 | 0 | 0 | 40 | 60 | 0 | 40 | 40 | 70 | 50 | 0 | 90 | 90 | 0 | 50 | 30 |  |

Source: patent publication US20260262643A1, “HERBICIDAL BENZOXAZINES” (FMC CORPORATION, priority 2022, published 2026)
